Test results reported in ChEMBL document CHEMBL5029183 (J Med Chem, 2021).
The source made the active and inactive calls.

Tests used:
Mus musculus [1] = assay: Antinociceptive activity in Kunming mouse model assessed as increase in paw withdrawal latency at 20 nmol, icv pretreated for 30 mins with nor-BNI followed by compound addition and measured upto 10 mins by radiant heat paw withdrawal assay; format: functional, organism-based; conditions: time min <=10
Mus musculus [2] = assay: Antinociceptive tolerance in Kunming mouse pretreated with compound for 3 hrs followed by challenge with second dose of compound at 20 nmol, icv and measured after 1 to 1.5 hrs by radiant heat paw withdrawal test; format: functional, organism-based; conditions: time 4-4.5 hrs
Mus musculus [3] = assay: Antinociceptive activity in icv dosed Kunming mouse model assessed as increase in paw withdrawal latency by radiant heat paw withdrawal assay; format: functional; conditions: dose 0.67-20 nmol
Rattus norvegicus = species on record: Rattus norvegicus; assay: Selectivity index, ratio of Ki for displacement of [3H]-U69593 from KOR in Wistar rat brain membranes to Ki for displacement of [3H]DAMGO from MOR in Wistar rat brain membranes; format: cell membranes
Mus musculus [4] = species on record: Mus musculus; assay: Tolerance ratio of ED50 for Kunming mouse pretreated with 3 times ED50 of compound for 2 hrs followed by challenge with second dose of compound to ED50 for Kunming mouse pretreated with saline for 2 hrs followed by compound addition; format: functional
[5] = target: Kappa-type opioid receptor (Homo sapiens) (UniProt P41145); assay: Agonist activity at kappa-opioid receptor (unknown origin) expressed in HEK293 cells assessed as inhibition of forskolin-induced cAMP accumulation incubated for 15 mins by ELISA; format: functional, cell-based
Sequence of Kappa-type opioid receptor (Homo sapiens) (P41145 whole entry): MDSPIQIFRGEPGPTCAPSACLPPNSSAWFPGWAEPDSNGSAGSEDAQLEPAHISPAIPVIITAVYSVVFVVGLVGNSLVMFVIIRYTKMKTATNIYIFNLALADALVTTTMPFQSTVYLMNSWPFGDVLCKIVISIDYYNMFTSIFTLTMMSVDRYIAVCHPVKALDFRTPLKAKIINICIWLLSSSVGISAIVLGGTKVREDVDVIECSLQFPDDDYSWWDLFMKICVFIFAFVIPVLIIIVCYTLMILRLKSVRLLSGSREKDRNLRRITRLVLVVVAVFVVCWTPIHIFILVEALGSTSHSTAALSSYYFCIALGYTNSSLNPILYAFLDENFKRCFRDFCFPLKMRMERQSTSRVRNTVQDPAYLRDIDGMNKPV

Mu-type opioid receptor = Mu-type opioid receptor (Homo sapiens, UniProt P35372); assay: Agonist activity at mu-opioid receptor (unknown origin) expressed in HEK293 cells assessed as inhibition of forskolin-induced cAMP accumulation incubated for 15 mins by ELISA relative to control; format: functional, cell-based; conditions: filed as agonist
Sequence of Mu-type opioid receptor (P35372 whole entry): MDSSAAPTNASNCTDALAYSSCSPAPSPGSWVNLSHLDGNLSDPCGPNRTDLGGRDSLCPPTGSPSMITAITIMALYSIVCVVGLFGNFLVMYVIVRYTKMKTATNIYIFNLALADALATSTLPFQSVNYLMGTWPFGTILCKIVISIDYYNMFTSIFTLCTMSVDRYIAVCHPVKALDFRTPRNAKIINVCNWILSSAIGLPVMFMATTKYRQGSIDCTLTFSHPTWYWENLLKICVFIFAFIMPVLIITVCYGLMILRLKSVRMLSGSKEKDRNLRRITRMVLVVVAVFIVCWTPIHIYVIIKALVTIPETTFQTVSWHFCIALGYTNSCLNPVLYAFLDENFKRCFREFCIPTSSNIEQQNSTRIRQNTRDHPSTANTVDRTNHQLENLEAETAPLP

Mus musculus [6] = assay: Chronic antinociceptive tolerance in Kunming mouse pretreated with compound followed by repeated compound addition at 10 micromol/kg, sc once daily for 7 days and measured after 10 mins by radiant heat paw withdrawal test; format: functional, organism-based; conditions: dose 10.0 µmol/kg, time 7.0 day
[7] = target: Delta-type opioid receptor (Homo sapiens) (UniProt P41143); assay: Agonist activity at delta-opioid receptor (unknown origin) expressed in HEK293 cells assessed as inhibition of forskolin-induced cAMP accumulation incubated for 15 mins by ELISA; format: functional, cell-based
Sequence of Delta-type opioid receptor (Homo sapiens) (P41143 whole entry): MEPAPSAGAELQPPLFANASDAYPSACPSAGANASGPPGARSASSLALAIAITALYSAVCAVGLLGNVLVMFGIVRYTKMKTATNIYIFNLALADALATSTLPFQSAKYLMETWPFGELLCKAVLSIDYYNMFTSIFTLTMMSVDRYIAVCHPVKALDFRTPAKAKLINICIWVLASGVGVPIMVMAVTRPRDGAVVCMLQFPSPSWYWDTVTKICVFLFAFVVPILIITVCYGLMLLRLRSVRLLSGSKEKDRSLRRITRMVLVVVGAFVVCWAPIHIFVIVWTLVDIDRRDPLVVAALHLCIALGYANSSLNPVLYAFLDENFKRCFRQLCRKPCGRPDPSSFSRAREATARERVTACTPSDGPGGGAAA

[8] = Toxicity in Kunming mouse assessed as effect on motor coordination at 20 nmol, icv by rotarod test; conditions: in vivo, icv_or_intrathecal
[9] = Toxicity in icv dosed Kunming mouse assessed as inhibition of gastrointestinal transit by measuring charcoal distance travel by charcoal meal test; format: organism-based; conditions: in vivo, icv_or_intrathecal, dose 0.67-6.7 nmol
Mus musculus [10] = assay: Antinociceptive activity in Kunming mouse model assessed as increase in paw withdrawal latency at 10 micromol/kg, sc at 10 to 90 mins by radiant heat paw withdrawal assay; format: functional, organism-based; conditions: dose 10.0 µmol/kg, time 10-90 min
Mus musculus [11] = assay: Antiallodynic activity in Kunming mouse model of spared nerve injury-induced neuropathic pain assessed as increase in paw withdrawal threshold at 10 micromol/kg, sc measured at 10 to 50 mins by von Frey test; format: functional, organism-based; conditions: dose 10.0 µmol/kg, time 10-50 min
Mus musculus [12] = assay: Antinociceptive activity in Kunming mouse model assessed as increase in paw withdrawal latency at 0.67 to 20 nmol, icv by radiant heat paw withdrawal assay; format: functional, organism-based; conditions: dose 0.67-20 nmol, TDE = time-dependent effect
Mus musculus [13] = assay: Chronic antinociceptive tolerance in Kunming mouse assessed as maximum possible effect pretreated with compound followed by repeated compound addition at 20 nmol, icv once daily for 7 days and measured after 10 mins by radiant heat paw withdrawal test; format: functional; conditions: time 7 day
Mus musculus [14] = assay: Chronic antinociceptive tolerance in Kunming mouse pretreated with compound followed by repeated compound addition at 20 nmol, icv once daily for 7 days and measured after 10 mins by radiant heat paw withdrawal test; format: functional, organism-based; conditions: time 7.0 day

Row | Structure (SMILES) | Activity (Mus musculus [1]) | Activity (Mus musculus [2]) | Activity (Mus musculus [3]) | ED50 (Mus musculus [3]) [nmol] | Ratio Ki (Rattus norvegicus) | Ratio (Mus musculus [4]) | Activity [5] | Emax (Mu-type opioid receptor) [%] | Activity (Mus musculus [6]) | Activity [7] | Activity [8] | Activity [9] | Activity (Mus musculus [10]) | Activity (Mus musculus [11]) | Activity (Mus musculus [12]) | MPE (Mus musculus [13]) [%] | Activity (Mus musculus [14])
1 | Cc1cc(O)cc(C)c1C[C@H](N)C(=O)N[C@H]1CSSC[C@@H](C(=O)NCC(=O)N[C@H](CCCNC(=N)N)C(=O)N[C@H](CCCNC(=N)N)C(=O)O)NC(=O)[C@H](Cc2ccc(Cl)cc2)NC(=O)[C@H](Cc2ccccc2)NC1=O | inactive | inactive | Dose-Dependent Effect | 2.3 | 710 | 1.5 | inactive | 83.8 | inactive | inactive | Non-Toxic | Dose-Dependent Effect | Active | Active | Tde | 77.25 | –
2 | Cc1cc(O)cc(C)c1C[C@H](N)C(=O)N[C@H]1CSSC[C@@H](C(=O)NCC(=O)N[C@H](CCCNC(=N)N)C(=O)N[C@H](CCCNC(=N)N)C(=O)O)NC(=O)[C@H](Cc2ccc(Cl)cc2)NC(=O)[C@H](Cc2c[nH]c3ccccc23)NC1=O | Active | inactive | Dose-Dependent Effect | 2.1 | 548 | 1.2 | inactive | 87.3 | inactive | inactive | Non-Toxic | Dose-Dependent Effect | Active | Active | Tde | – | inactive
